Experimental data reported in ChEMBL document CHEMBL2417394, “Exquisite selectivity for human toll-like receptor 8 in substituted furo[2,3-c]quinolines” (J Med Chem, 2013).
Active and inactive are the calls of the source.

Columns and labels:
Format in all cases: cell-based
[1] = biological target: T1, Toll-like receptor 8 (Homo sapiens) (UniProt Q9NR97); assay: Antagonist activity at human TLR8 expressed in HEK293 cells co-transfected with MD2 and sAP assessed as inhibition of NF-kappaB activity by reporter gene assay
T1 sequence (whole entry): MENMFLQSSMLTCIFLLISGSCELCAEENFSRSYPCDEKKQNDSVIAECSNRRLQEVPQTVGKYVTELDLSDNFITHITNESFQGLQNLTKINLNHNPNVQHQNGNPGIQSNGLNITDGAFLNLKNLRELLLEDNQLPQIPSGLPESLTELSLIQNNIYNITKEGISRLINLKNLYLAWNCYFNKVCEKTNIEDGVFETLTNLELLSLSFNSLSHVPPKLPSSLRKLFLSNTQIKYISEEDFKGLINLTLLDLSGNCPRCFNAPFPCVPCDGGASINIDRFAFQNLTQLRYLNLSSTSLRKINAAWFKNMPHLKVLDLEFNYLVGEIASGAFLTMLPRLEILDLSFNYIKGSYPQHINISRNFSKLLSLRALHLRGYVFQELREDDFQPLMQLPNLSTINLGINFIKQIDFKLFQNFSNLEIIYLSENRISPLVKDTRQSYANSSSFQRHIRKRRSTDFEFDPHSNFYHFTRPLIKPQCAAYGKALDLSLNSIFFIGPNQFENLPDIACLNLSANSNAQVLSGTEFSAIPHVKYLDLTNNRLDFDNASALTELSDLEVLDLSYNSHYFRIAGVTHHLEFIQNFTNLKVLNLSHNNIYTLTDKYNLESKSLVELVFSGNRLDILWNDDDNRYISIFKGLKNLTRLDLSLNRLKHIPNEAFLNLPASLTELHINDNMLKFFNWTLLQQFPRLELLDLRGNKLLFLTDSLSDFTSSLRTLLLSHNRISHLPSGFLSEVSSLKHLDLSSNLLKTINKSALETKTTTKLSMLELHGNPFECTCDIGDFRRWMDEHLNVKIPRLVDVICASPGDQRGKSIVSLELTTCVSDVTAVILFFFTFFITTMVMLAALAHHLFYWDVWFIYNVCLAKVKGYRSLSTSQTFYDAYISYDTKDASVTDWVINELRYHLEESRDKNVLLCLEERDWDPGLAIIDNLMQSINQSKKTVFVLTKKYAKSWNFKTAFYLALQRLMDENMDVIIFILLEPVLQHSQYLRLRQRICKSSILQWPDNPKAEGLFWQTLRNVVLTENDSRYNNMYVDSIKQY

[2] = biological target: T2, Toll-like receptor 7 (Homo sapiens) (UniProt Q9NYK1); assay: Antagonist activity at human TLR7 expressed in HEK293 cells co-transfected with MD2 and sAP assessed as inhibition of NF-kappaB activity by reporter gene assay
T2 sequence (whole entry): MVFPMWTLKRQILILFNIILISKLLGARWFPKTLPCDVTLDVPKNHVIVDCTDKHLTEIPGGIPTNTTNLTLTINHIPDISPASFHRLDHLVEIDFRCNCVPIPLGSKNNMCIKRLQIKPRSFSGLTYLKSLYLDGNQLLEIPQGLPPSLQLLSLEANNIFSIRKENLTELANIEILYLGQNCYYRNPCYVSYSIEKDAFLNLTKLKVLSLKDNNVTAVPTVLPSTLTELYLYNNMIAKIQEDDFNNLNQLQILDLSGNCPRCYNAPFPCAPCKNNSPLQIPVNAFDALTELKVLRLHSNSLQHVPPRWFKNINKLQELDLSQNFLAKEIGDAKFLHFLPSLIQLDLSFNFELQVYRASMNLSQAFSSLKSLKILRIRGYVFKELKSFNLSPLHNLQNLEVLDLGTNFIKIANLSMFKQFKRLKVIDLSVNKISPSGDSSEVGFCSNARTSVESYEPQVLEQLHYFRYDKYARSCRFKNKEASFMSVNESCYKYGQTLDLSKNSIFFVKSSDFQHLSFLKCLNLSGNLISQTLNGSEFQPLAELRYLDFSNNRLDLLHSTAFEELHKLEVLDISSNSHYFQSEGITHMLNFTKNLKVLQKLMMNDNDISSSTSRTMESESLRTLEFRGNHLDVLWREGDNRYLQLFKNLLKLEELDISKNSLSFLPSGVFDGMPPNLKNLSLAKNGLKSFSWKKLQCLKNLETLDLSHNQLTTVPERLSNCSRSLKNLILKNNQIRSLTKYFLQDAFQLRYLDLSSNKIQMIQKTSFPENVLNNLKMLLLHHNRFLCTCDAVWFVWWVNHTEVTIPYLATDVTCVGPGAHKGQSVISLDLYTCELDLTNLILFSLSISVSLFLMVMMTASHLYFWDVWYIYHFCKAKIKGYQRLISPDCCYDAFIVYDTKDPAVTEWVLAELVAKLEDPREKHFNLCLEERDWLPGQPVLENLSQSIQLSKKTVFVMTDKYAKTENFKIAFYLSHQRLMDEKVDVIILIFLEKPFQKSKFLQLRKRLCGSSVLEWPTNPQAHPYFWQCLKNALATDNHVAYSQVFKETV

[3] = biological target: Toll-like receptor 2 (Homo sapiens) (UniProt O60603); assay: Antagonist activity at human TLR2 expressed in HEK293 cells co-transfected with MD2 and sAP assessed as inhibition of NF-kappaB activity by reporter gene assay
Sequence of Toll-like receptor 2 (Homo sapiens) (O60603 whole entry): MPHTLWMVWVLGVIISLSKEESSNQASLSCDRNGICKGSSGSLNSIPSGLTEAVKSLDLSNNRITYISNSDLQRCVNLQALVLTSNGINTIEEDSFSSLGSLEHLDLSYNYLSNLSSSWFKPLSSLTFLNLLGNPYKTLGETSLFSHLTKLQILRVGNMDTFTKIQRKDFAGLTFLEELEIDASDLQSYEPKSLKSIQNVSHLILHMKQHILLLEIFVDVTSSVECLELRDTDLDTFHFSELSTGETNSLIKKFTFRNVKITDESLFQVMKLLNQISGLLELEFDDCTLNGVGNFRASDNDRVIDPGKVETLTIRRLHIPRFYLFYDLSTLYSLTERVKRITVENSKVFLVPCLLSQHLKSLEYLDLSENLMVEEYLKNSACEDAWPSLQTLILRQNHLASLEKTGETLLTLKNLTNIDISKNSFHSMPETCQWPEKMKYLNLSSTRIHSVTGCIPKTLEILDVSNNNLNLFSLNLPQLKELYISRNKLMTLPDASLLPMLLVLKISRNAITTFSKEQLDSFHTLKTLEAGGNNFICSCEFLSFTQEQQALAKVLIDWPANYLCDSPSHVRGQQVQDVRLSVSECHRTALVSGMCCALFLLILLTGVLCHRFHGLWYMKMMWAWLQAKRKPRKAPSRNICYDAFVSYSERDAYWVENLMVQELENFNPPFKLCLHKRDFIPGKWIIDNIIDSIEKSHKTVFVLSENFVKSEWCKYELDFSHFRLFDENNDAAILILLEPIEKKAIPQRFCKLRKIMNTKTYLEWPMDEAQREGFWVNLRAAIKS

Measured: inhibition

CCCCc1cc2c(nc(N)c3ccccc32)o1
inactive: all assays above

CCCCc1cc2c(N)nc3ccccc3c2o1
inactive: all assays above

CCCc1cc2c(N)nc3ccccc3c2o1
inactive: all assays above

Nc1nc2ccccc2c2oc(-c3ccccc3)cc12
inactive: all assays above
